In patent publication US20200222474A1, “COMPOSITIONS AND METHODS FOR INCREASING PHYTOCHEMICAL BIOAVAILABLITY AND BIOACTIVITY” (North Carolina State University, priority 2017, published 2020):

How the values were obtained:
[1] = tested on: L. acidophilus NCFM; assay: Growth of L. acidophilus NCFM on plant glycosides as single carbon source (OD600); assay type: cell-based, Lactobacillus acidophilus; conditions: verified by production of lactate and metabolite analysis
Experimental: (§1) For initial growth and gene expression studies, L. acidophilus NCFM was propagated three times in semi-defined medium (SDM) supplemented with either 1% or 0,5% (w/v) of the plant glycoside or carbohydrate (Table 1). For the RNA-seq analysis, cells were harvested by centrifugation (3,220×10 min, 25° C.) in the mid-exponential phase (OD600=0.6-0.8) and stored at −80° C. for subsequent RNA isolation. For the mass spectrometry metabolite analyses, 200 μt samples were taken at 0, 3, 6, 9, 12, and 24 hours of growth; cells were removed by centrifugation; and supernatants were stored at −80° C. for further analysis.
(§2) Phenotypic growth assays were performed using 1% (v/v) overnight cultures of L. acidophilus strains (Table 2) and other Lactobacillus species (Table 3) grown on SDM supplemented with 1% (w/v) glucose to inoculate 200 μL of SDM supplemented with 1% (w/v) of the examined carbohydrate (0.5% in the case of esculin) in 96-well microplate wells (Corning Costar, Corning, N.Y., USA) in duplicate or triplicate wells, respectively. The microplates were sealed with clear adhesive film, incubated at 37° C. in a Fluostar Optima microplate reader (BMG Labtech, Cary, N.C., USA), and the cell optical density (OD600) was monitored for 30 hours.
(§3) The growth of L. acidophilus NCFM was evaluated on twelve chemically diverse, nutritionally relevant and/or therapeutically active PGs 1; Table 1). FIG. 1A provides the structures and common sources of plant glycoside substrates described herein. The compounds that support growth of Lactobacillus acidophilus are in green. RI: β-D-Glcp; R2: Gentiobioside (β-D-Glcp-(1,6)-D-Glcp); R3: Rutinoside (α-L-Rhaf-(1,6)-D-Glcp). The graph in FIG. 1B depicts plant glycoside utilization analyzed by mass spectrometry and the growth as the maximum OD600. Due to the low solubility of polydatin, OD600 cannot be used as a growth metric and utilization of this compound is confirmed by the production of lactate as well as a high utilization level based on the metabolite analysis.

[2] = tested on: L. acidophilus NCFM; assay: Plant glycoside uptake and metabolite analysis of L. acidophilus NCFM culture supernatants by UHPLC-DAD-Q-TOF-MS; assay type: cell-based, Lactobacillus acidophilus
Experimental: as §1
Analysis of plant glycoside uptake from L. acidophilus NCFM culture supernatants using mass spectrometry. The supernatants of L. acidophilus NCFM cultures grown on amygdalin, arbutin, esculin or salicin as carbon sources were analyzed during 24 hours by ultra-high performance liquid chromatography-diode array detection-quadruple time of flight mass spectrometry (UHPLC-DAD-Q-TOF-MS). Samples were diluted 1:20 (v/v) with methanol and an injection volume of […] was used. Separation was carried out on an Agilent Poroshell 120 phenyl-hexyl column (2.1×150 mm, 2.7 μm) using the Agilent Infinity 1290 UHPLC system (Agilent Technologies, Santa Clara, Calif., USA) equipped with a UV/vis spectrum diode array detector. Separation was performed at 0.35 mL min-1., 60° C. with a linear gradient consisting of water (A) and acetonitrile (B) both buffered with 20 mM formic acid, starting at 10% B and increased to 100% in 15 min where it was held for 2 min, returned to 10% in 0.1 min and kept for 3 min. MS detection was performed on an Agilent 6550 iFunnel QTOF MS equipped with Agilent Dual Jet Stream electrospray ion source with the drying gas temperature of 160° C. and gas flow of 13 L min^−1, whereas the sheath gas temperature was 300° C. and flow was 16 L min-1. Ionization was conducted in ESI-mode with capillary voltage set to 4000 V and nozzle voltage to 500 V. Mass spectra were recorded as centroid data for m/z 85-1700 in MS mode with an acquisition rate of 10 spectra s^−1. To avoid carry-over, the needle seat was back-flushed for 15 s at 4 mL min-1 with each of: i) isopropanol: 0.2% ammonium hydroxide (w/v) in water (1:1 v/v); ii) acetonitrile with 2% formic acid (w/v); iii) water with 2% formic acid. Data was processed with the Agilent Mass Hunter Qualitative Analysis B.07.00 software package (Agilent Technologies) and molar concentrations were obtained from standard curves of the plant glycosides and their main metabolites. Targeted compound searches were performed using lists of previously identified compounds plus standard chemical modifications.

[3] = Solubility in growth experiments (observation); assay type: physicochemical; conditions: in growth medium; precluded OD600 nm as growth metric
Experimental: as §3

[4] = tested on: NCK2422 (ΔLBA0725); assay: Phenotypic growth analysis of deletion mutant (PTS EIICBA); assay type: cell-based, Lactobacillus acidophilus
Experimental: as §2
(§4) Construction of gene deletion mutants. The L. acidophilus NCFM genes LBA0225 and LBA0726, both encoding P-Bgl of glycoside hydrolase family 1 (GH1) enzymes in addition to the LBA0227 and LBA0725 genes encoding an EIIC and an EIICBA components of two PTS systems, respectively, were deleted using the upp-based counterselectable gene replacement system. Briefly, in-frame deletions were constructed by amplifying 650-750 bp of the up- and downstream flanking regions of the deletion targets with two primer pairs (e.g., LBA0225A/LBA0225B and LBA0225C/LBA0225D; Table 4). The resulting purified products were joined by splicing using overlap extension PCR (SOE-PCR63) and amplified to establish the deletion alleles. The SOE-PCR products, that include flanking restriction enzyme sites, were cloned within the BamHI and SacI/EcoRI sites of the pTRK935 integration vector and transformed into E. coli EC101. The resulting recombinant plasmids (pTRK1113-6) were confirmed by DNA sequencing and electroporated into L. acidophilus NCK1910 (Table 2) that contains the pTRK669 helper plasmid, and the recovery of the single- and double-crossover recombinants was performed as previously described. Recombinants carrying the new gene deletion alleles were isolated by colony PCR using primer pairs denoted up/down (e.g., LBA0225up/LBA0225down), which anneal to the flanking regions of the amplicons. Sequence integrity and in-frame deletions were verified by DNA sequencing employing the aforementioned primer pairs and primer denoted mid (e.g., LBA0225mid). The mutations were in-frame deletions of 90-96% of the coding regions.
To establish the functional significance of these two loci, single deletions of each PTS EII and P-Bgl gene, and a double deletion of both P-Bgl genes were constructed using the upp-based counter-selectable gene replacement system (Table 2) and the growth phenotypes of the mutant strains were analyzed (FIG. 3). Phenotypic growth analyses of deletion mutants of EII PTS transporters (FIGS. 3A, 3C, 3E, 3G, and 3I) and phospho-β-glucosidase (FIGS. 3B, 3D, 3F, 3H, and 3J) on the β-glucosides esculin, salicin, amygdalin and the disaccharides gentiobiose and cellobiose. The background Aupp strain is shown as a grey fill graph and the growth of the mutant strains is shown as: PTS EIIC (LBA0227, pink triangle), the phospho-β-glucosidase (LBA0225, light blue triangles), the PTS EIICBA (LBA0725, yellow squares), the second phospho-β-glucosidase (LBA0726, lilac squares) and the double phospho-β-glucosidase mutant (LBA0225/LBA0726, black stars). The color scheme is consistent with that used for the gene loci in FIG. 2.

[5] = tested on: NCK2424 (ΔLBA0726); assay: Phenotypic growth analysis of deletion mutant (phospho-β-glucosidase); assay type: cell-based, Lactobacillus acidophilus; conditions: compared with background Δupp strain
Experimental: as §2
Construction of gene deletion mutants. The L. acidophilus NCFM genes LBA0225 and LBA0726, both encoding P-Bgl of glycoside hydrolase family 1 (GH1) enzymes in addition to the LBA0227 and LBA0725 genes encoding an EIIC and an EIICBA components of two PTS systems, respectively, were deleted using the upp-based counterselectable gene replacement system. Briefly, in-frame deletions were constructed by amplifying 650-750 bp of the up- and downstream flanking regions of the deletion targets with two primer pairs (e.g., LBA0225A/LBA0225B and LBA0225C/LBA0225D; Table 4). The resulting purified products were joined by splicing using overlap extension PCR (SOE-PCR63) and amplified to establish the deletion alleles. The SOE-PCR products, that include flanking restriction enzyme sites, were cloned within the BamHI and SacI/EcoRI sites of the pTRK935 integration vector and transformed into E. coli EC101. […]
(§5) To establish the functional significance of these two loci, single deletions of each PTS EII and P-Bgl gene, and a double deletion of both P-Bgl genes were constructed using the upp-based counter-selectable gene replacement system (Table 2) and the growth phenotypes of the mutant strains were analyzed (FIG. 3). […]

[6] = tested on: NCK2418 (ΔLBA0227); assay: Phenotypic growth analysis of deletion mutant (PTS EIIC); assay type: cell-based, Lactobacillus acidophilus; conditions: compared with background Δupp strain
Experimental: as §2, §4, §5

Row | Molecule | growth on compound (OD600 not usable) [1] | aglycone / main metabolite identified in culture supernatant ([2]; L. acidophilus NCFM growing on the glycoside, up to 24 h) | Catabolism based on MS ([2]; growth concentration 0.5% (w/v), qualitative: depletion of the plant glycoside and/or appearance of its metabolites) | solubility [3] | reduction of growth on inactivation of the EIICBA (LBA0725) [4] | growth of the ΔLBA0725 mutant (inactive PTS EIICBA) ([4]; compared with background Δupp strain) | growth of the ΔLBA0726 mutant (P-Bgl) [5] | growth of the ΔLBA0227 mutant (inactive EIIC) [6]
1 | OC[C@H]1O[C@@H](Oc2cc(O)cc(/C=C/c3ccc(O)cc3)c2)[C@H](O)[C@@H](O)[C@@H]1O [Polydatin] | verified by production of lactate and metabolite analysis | resveratrol | Yes | poor solubility | – | – | – | –
2 | gentiobiose [reference compound] | – | – | – | – | about 50% | moderately reduced | unaffected | abolished
